Measured values taken from article PMC6753126, “Bidirectional transport of 2-chloroadenosine by equilibrative nucleoside transporter 4 (hENT4): Evidence for allosteric kinetics at acidic pH” (Scientific Reports, 2019).
Where two headings read alike, the source gives them in different places.

What was measured:
[1] = target: T1, equilibrative nucleoside transporter 4 (hENT4) (Homo sapiens, UniProt Q7RTT9); experiment: inhibition of [3H]2-chloroadenosine uptake at pH […] in PK15-hENT4 cells; type: cell-based
T1 construct: gene SLC29A4
T1 sequence (Q7RTT9 1-530): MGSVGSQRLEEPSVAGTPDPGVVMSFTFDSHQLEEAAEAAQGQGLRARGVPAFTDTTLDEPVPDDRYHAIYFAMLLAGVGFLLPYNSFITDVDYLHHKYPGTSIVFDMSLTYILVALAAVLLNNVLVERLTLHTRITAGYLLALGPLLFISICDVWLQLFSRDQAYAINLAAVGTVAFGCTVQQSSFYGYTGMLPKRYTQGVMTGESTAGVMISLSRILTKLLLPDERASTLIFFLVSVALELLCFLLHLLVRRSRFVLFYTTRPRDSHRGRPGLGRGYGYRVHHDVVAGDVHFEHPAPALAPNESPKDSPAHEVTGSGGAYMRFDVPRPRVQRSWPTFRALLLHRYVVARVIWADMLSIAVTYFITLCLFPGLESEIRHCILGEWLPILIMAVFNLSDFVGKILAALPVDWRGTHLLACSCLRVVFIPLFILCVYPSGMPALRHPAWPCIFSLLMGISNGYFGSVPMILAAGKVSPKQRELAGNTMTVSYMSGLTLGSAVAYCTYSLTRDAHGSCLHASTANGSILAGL

[2] = target: T1, equilibrative nucleoside transporter 4 (hENT4); experiment: radiolabelled substrate uptake kinetics (Km, pH […] high-affinity component) and efflux in PK15-hENT4 cells; type: cell-based

| Compound | IC50 ([1]; read-out: IC50) | also measured |
| --- | --- | --- |
| CCN1/C(=C/c2ccc3ccccc3[n+]2CC)C=Cc2ccccc21 [D22, decynium 22] | ~2300 nM | – |
| C[n+]1ccc(-c2ccccc2)cc1 [MPP+, MPP^+] | – | IC50 [1]: 220000 nM |
| TC-T6000 | ~2300 nM | – |
| Nc1nc(Cl)nc2c1ncn2[C@@H]1O[C@H](CO)[C@@H](O)[C@H]1O [2-CADO, 2-chloroadenosine] | – | Km [2]: ~50 µM |
